# Measured values from article PMC4104309, “Estradiol Binds to Insulin and Insulin Receptor Decreasing Insulin Binding in vitro” (Frontiers in Endocrinology, 2014).
# pKd: −log10 of the molar value. Several values for one entry are separate records, joined by “and”; a condition that tells them apart may be missing. Identical values can stand only once. Counter-ions that a name gives are not always drawn. Like-named read-outs stand apart in the source and are kept apart here.
# Key:
# [1] = molecular target: T1, IR α 424–441 peptide of the human insulin receptor (Homo sapiens, UniProt P06213); experiment: UV spectroscopy binding to insulin receptor peptide IR α 424–441; conditions: for Kd: UV spectroscopy, peptide 100 nM in pH 7.4 phosphate buffer, 30 min room temperature, duplicates averaged
# T1 construct: IR α 424–441; made in house; host or cells: chemical peptide synthesis (Michigan State University facility)
# Text: Humulin R was obtained from Lilly.
# [2] = molecular target: IR α 392–404 peptide of the human insulin receptor (Homo sapiens, UniProt P06213); experiment: UV spectroscopy binding to insulin receptor peptide IR α 392–404
# [3] = molecular target: IR β 897–916 peptide of the human insulin receptor (Homo sapiens, UniProt P06213); experiment: UV spectroscopy binding to insulin receptor peptide IR β 897–916
# [4] = molecular target: IR α 284–300 peptide of the human insulin receptor (Homo sapiens, UniProt P06213); experiment: UV spectroscopy binding to insulin receptor peptide IR α 284–300
# [5] = molecular target: IR α 453–464 peptide of the human insulin receptor (Homo sapiens, UniProt P06213); experiment: UV spectroscopy binding to insulin receptor peptide IR α 453–464
# [6] = molecular target: IR α 105–118 peptide of the human insulin receptor (Homo sapiens, UniProt P06213); experiment: UV spectroscopy binding to insulin receptor peptide IR α 105–118
# [7] = molecular target: IR α 91–103 peptide of the human insulin receptor (Homo sapiens, UniProt P06213); experiment: UV spectroscopy binding to insulin receptor peptide IR α 91–103
# [8] = molecular target: IR α 233–248 peptide of the human insulin receptor (Homo sapiens, UniProt P06213); experiment: UV spectroscopy binding to insulin receptor peptide IR α 233–248
# [9] = molecular target: IR α 223–234 peptide of the human insulin receptor (Homo sapiens, UniProt P06213); experiment: UV spectroscopy binding to insulin receptor peptide IR α 223–234
# [10] = molecular target: recombinant human insulin (Humulin) (Homo sapiens, UniProt P01308); experiment: UV spectroscopy binding of sex hormones to recombinant human insulin (Humulin); conditions: for Binding to INS (in words): UV spectroscopic studies, discussion summary
# [11] = tested on: Human recombinant INS; experiment: Capillary electrophoresis: E2 in solution with and without insulin; conditions: mean ± SD of the five EI/E ratios (10, 15, 20, 25, 30 kV)
# [12] = tested on: insulin receptor (IR) isolated from rat liver; experiment: Enzyme-linked INS binding assay: effect of E2 on INS–HRP binding to IR
# [13] = molecular target: human INS-like growth factor receptor (IGFR) (Homo sapiens, UniProt P08069); experiment: UV spectroscopy (serial addition) binding of estradiol to IGFR; conditions: human recombinant IGFR, biphasic
# Experimental: Rat IR membrane preparation (I-9266) (IR) and human INS-like growth factor receptor (IGFR) (I-4657) were obtained from Sigma-Aldrich. The rat IR was a partially purified preparation in residual membrane and contained 250 units of activity as measured by its ability to catalyze the incorporation of 1 pmol per min of phosphate from γ-^32P-ATP into poly(Glu, Tyr), 4:1, at 30°C. The IGFR was recombinant, at least 95% pure by SDS-PAGE, and capable of binding INS-like growth factor. Both receptor preparations, in sum, retained activity.
# (§1) Additions were made serially.
# This serial addition method was also used to determine the binding of estradiol to IR and IGFR.
# [14] = molecular target: oxidized insulin B chain (Insulin beta chain) (Bos taurus, UniProt P01317); experiment: UV spectroscopy binding to oxidized insulin B chain; conditions: read-out: Binding constant to individual oxidized INS B chain
# Text: as §1
# [15] = Concentration of E2 in E2-saturated buffer with INS–HRP or IR, by capillary electrophoresis; type: physicochemical; conditions: crystals in buffer, at least 48 h room temperature; CE read-out
# [16] = tested on: INS binding; conditions: 10^−8 M 17β-estradiol in the culture medium; ref Hilf et al. ([80]); cited from earlier work
# [17] = molecular target: Glucagon (Homo sapiens, UniProt P01275); experiment: UV spectroscopy binding to glucagon (control)
# [18] = tested on: INS binding; conditions: 1 mg dose of E2, within 24 h; ref Hilf et al. ([80]); cited from earlier work
# [19] = molecular target: oxidized insulin A chain (Insulin alpha chain) (Bos taurus, UniProt P01317); experiment: UV spectroscopy binding to oxidized insulin A chain
# [20] = molecular target: IR α 223–234 (human)
# [21] = molecular target: IR α 424–441 (human)
# [22] = molecular target: IR α 91–103 (human)
# [23] = molecular target: IR α 233–248 (human)
# [24] = molecular target: IR α 392–404 (human)
# [25] = Binding constant to recombinant human INS, UV spectroscopy
# Sequence of recombinant human insulin (Humulin) (P01308 with tags, fused parts or gaps): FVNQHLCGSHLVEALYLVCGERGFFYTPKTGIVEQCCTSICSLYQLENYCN
# Sequence of recombinant human insulin (Humulin) (P01308 with tags, fused parts or gaps): as above
# Sequence of IR β 897–916 peptide of the human insulin receptor (P06213 897-916 limits assumed): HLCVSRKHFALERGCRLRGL
# Sequence of human INS-like growth factor receptor (IGFR) (P08069 with tags, fused parts or gaps): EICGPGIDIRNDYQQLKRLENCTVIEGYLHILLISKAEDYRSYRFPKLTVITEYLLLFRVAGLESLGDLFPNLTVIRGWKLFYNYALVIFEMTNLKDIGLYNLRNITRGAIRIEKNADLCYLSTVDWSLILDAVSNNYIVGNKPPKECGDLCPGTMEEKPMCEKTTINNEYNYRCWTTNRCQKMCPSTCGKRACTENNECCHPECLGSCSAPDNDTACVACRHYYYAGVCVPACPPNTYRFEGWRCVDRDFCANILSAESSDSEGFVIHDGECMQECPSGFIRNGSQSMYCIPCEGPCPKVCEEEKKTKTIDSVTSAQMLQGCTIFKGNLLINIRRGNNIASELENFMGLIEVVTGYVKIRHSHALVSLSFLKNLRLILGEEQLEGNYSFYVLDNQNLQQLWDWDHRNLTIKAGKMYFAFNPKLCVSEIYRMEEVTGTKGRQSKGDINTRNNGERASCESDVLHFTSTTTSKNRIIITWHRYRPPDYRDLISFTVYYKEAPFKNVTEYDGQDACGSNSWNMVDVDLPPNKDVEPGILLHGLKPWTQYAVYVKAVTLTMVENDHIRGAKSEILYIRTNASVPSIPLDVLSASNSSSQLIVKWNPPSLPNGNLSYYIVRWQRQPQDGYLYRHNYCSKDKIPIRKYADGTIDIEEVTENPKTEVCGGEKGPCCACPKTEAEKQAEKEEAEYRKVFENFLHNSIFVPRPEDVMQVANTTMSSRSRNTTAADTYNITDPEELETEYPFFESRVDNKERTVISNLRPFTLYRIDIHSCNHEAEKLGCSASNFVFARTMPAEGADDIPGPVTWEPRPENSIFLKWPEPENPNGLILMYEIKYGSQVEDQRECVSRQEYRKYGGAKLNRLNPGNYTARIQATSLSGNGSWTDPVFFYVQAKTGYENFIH
# Sequence of oxidized insulin A chain (Insulin alpha chain) (P01317 85-105): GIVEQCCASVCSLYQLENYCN
# Sequence of oxidized insulin B chain (Insulin beta chain) (P01317 25-54): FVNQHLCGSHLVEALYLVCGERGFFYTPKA
# Sequence of Glucagon (P01275 53-81): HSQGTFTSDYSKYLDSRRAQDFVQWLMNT
Compound,pKd [2],pKd [3],pKd [4],pKd [5],pKd [6],pKd [7],pKd [8],pKd [9],pKd [10],further results
"CC(=O)[C@H]1CC[C@H]2[C@@H]3CC=C4C[C@@H](O)CC[C@]4(C)[C@H]3CC[C@]12C [Pregnenolone, 5-Pregnen-3β-ol-20-one]",–,–,–,–,–,–,–,–,–,Kd [1]: > 500 µM
C[C@]12CC[C@@H]3c4ccc(O)cc4CC[C@H]3[C@@H]1CCC2=O [Estrone],< 3.30,< 3.30,< 3.30,< 3.30,< 3.30,< 3.30,< 3.30,< 3.30,5.90,Kd [1]: > 500 µM
"O=C(c1ccc(OCCN2CCCCC2)cc1)c1c(-c2ccc(O)cc2)sc2cc(O)ccc12 [Raloxifene, Raloxifene HCl]",–,–,–,–,–,–,–,–,3.89,"pKd [10, 25]: 3.89; Binding to INS (in words) [10]: negligible binding"
CC(C)CCC[C@@H](C)[C@H]1CC[C@H]2[C@@H]3CC=C4C[C@@H](O)CC[C@]4(C)[C@H]3CC[C@]12C [Cholesterol],< 3.30,< 3.30,< 3.30,< 3.30,< 3.30,< 3.30,< 3.30,< 3.30,< 3.30,–
"C[C@]12CC[C@@H]3c4ccc(O)cc4CC[C@H]3[C@@H]1CC[C@@H]2O [17β-Estradiol (E2), 17β-Estradiol]",< 3.30,6.11,6.05,< 3.30,3.55,3.92,< 3.30,< 3.30,7.92,"EI/E ratio, mean ± SD [11]: 3.96 ± 0.45; Shift of INS–HRP/IR binding curve to the right ([12]; E2 incubated with either INS–HRP or the IR alone, E2 initially 200 nM, about 22 nM at curve mid-point, duplicates averaged): half; Shift of INS–HRP/IR binding curve to the right ([12]; both the IR and INS–HRP exposed to E2, E2 about 22 nM at curve mid-point): 0.8 log units; pKd ([13]; read-out: Binding to IGFR, high affinity binding): ~7.00; pKd ([13]; read-out: Kd to IGFR, lower affinity binding): < 5.00; pKd [14]: 3.82; Concentration of E2 in E2-saturated phosphate buffer in the presence of INS or IR [15]: ca. 60 ng/ml; Decrease of INS binding in cell culture [16]: ~ 20%; Binding to glucagon (in words) [17]: does not bind with measurable affinity; pKd ([10]; Binding constant (Kd) to INS, high affinity binding, UV spectroscopy): ~7.92 and 7.92; pKd ([10]; read-out: Binding constant to INS, low affinity binding, UV spectroscopy, biphasic binding): 4.19; Decrease of INS binding in rats [18]: ≤ 50%; Kd [1]: > 500 µM; Binding to the insulin A chain (in words), serial additions ([19]; UV serial addition, 1000 times the concentration of E2 used in Figure 2 (Figure 3)): no binding was apparent; pKd ([19]; read-out: Binding constant to individual oxidized INS A chain, UV spectroscopy): 3.66"
C[C@]12C[C@H](O)[C@H]3[C@@H](CCC4=CC(=O)CC[C@@]43C)[C@@H]1CC[C@@H]2C(=O)CO [Corticosterone],–,–,–,–,–,–,–,–,4.68,–
C[C@]12CC[C@@H]3c4ccc(O)cc4CC[C@H]3[C@@H]1C[C@@H](O)[C@@H]2O [Estriol],< 3.30,< 3.30,< 3.30,3.41,< 3.30,< 3.30,< 3.30,< 3.30,< 3.30,"pKd [10, 25]: < 3.30; Kd [1]: 380 µM"
O=c1c(-c2ccc(O)cc2)coc2cc(O)cc(O)c12 [Genistein],–,–,–,–,–,–,–,–,< 3.30,Binding to INS (in words) [10]: negligible binding
insulin conjugated to horse-radish peroxidase (ligand),–,–,–,–,–,–,–,–,–,pKd [20]: < 3.30; pKd [21]: < 3.30; pKd [22]: 7.15; pKd [23]: 8.10; pKd [24]: 6.52
"CC/C(=C(\c1ccccc1)c1ccc(OCCN(C)C)cc1)c1ccccc1 [Tamoxifen, Tamoxifen citrate salt]",–,–,–,–,–,–,–,–,< 3.30,Binding to INS (in words) [10]: negligible binding
"C[C@]12CCC(=O)C=C1CC[C@@H]1[C@@H]2CC[C@]2(C)C(=O)CC[C@@H]12 [Andro-stenedione, 4-andro-stenedione]",< 3.30,< 3.30,< 3.30,< 3.30,< 3.30,< 3.30,< 3.30,< 3.30,4.87,pKd [1]: < 3.30
CC(=O)[C@H]1CC[C@H]2[C@@H]3CCC4=CC(=O)CC[C@]4(C)[C@H]3CC[C@]12C [Progesterone],< 3.30,< 3.30,< 3.30,< 3.30,< 3.30,< 3.30,< 3.30,< 3.30,< 3.30,–
C[C@]12CC[C@@H]3c4ccc(O)cc4CC[C@H]3[C@@H]1CC[C@H]2O [17α-Estradiol],–,–,–,–,–,–,–,–,5.00,"Binding to INS (in words), serial additions ([10]; UV spectroscopy, serial additions, even at 1 μM (Figure 2)): does not bind significantly"
C[C@]12CCC(=O)C=C1CC[C@@H]1[C@@H]2[C@@H](O)C[C@@]2(C)[C@H]1CC[C@]2(O)C(=O)CO [Hydrocortisone],–,–,–,–,–,–,–,–,4.20,–
